Consider one molecule from ChEMBL document CHEMBL5113395, “Azetidin-2-one-based small molecules as dual hHDAC6/HDAC8 inhibitors: Investigation of their mechanism of action and impact of dual inhibition profile on cell viability” (Eur J Med Chem, 2022).

Holding throughout (format): toxicity, tissue-based
A short description of series [1]: Cardiotoxicity in Langendorff-perfused Wistar rat heart assessed as effect on QRS interval time at 0.1 uM by ECG analysis (reference value: 13.3+/-0.6 milliseconds).
A short description of series [2]: Cardiotoxicity in Langendorff-perfused Wistar rat heart assessed as effect on RR time at 0.01 uM by ECG analysis (reference value: 239.5+/-9.2 milliseconds).
Series [3] can be described thus: Cardiotoxicity in Langendorff-perfused Wistar rat heart assessed as effect on RR time at 0.1 uM by ECG analysis (reference value: 239.5+/-9.2 milliseconds).
Series [4] in a line: Cardiotoxicity in Langendorff-perfused Wistar rat heart assessed as effect on PQ interval time at 10 uM by ECG analysis (reference value: 45.4+/-3.9 milliseconds).

On to `O=C(NO)c1ccc(CNC(=O)N2CCC(N3CC(c4ccccc4)(c4ccccc4)C3=O)CC2)cc1`, for which the Time in series [1] is recorded as 13.1 ms; in series [2], 239.8 ms; in series [3], 233.1 ms; in series [4] it was 47.5 ms.
